Measured values published in US7348402B2, “Antimicrobial peptide, its analogs and antimicrobial composition comprising them” (priority 2002, dated 2008).
No end group written: not given here.

Experiments:
Type in all cases: cell-based
E. coli = assay: Cell penetration activity by confocal microscopy (FITC-labeled peptides); details: FITC-labeled peptide applied to fixed E. coli for 5 minutes
Description: FIGS. 1A˜1D are the results of analyzing the cell penetration activity of the new antimicrobial peptides by confocal microscopy. To emphasize the location of the antimicrobial peptides, color was eliminated from the images. The white area in FIGS. 1A˜1D is the antimicrobial peptide penetrated within the cell.
The cell penetration activity of the peptides prepared in Example 1 was observed by confocal microscopy. After inoculating and culturing E. coli in trypticase soy broth at 37° C. overnight, they were inoculated in new media and cultured for 2 hours to exponential growth phase. After washing E. coli with 10 mM NAPB (sodium phosphate buffer) and diluting to 10^5 CFU/ml, the above diluted E. coli was fixed for 30 min on glass-slides coated with poly-L-lysine. The N-terminus of the peptides prepared in Example 1 was labeled with FITC (fluoresceinisothicyanate), and the labeled peptides were applied to E. coli fixed on the glass-slides for 5 minutes. The glass-slides were washed with 10 mM NAPB and observed them by confocal microscopy.

[1] = test system: human red blood cells (hRBC); assay: Hemolytic activity on human red blood cells
Description: After separating the precipitated human red blood cells (hRBC) from 3 ml of human blood, they were washed with PBS (phosphate buffered saline) and diluted to make the total volume of 20 ml. In 190 μl of the prepared hRBC solution, 10 μl of each peptide sample (4 μg/μl ) prepared in Example 1 was added to make the final concentration of 200 μg/ml, reacted for 1 h at 37° C. and centrifuged for 5 min at 4000 rpm. […] The absorbance of the sample treated with 0.2% Triton X-100 was set to represent 100% hemolysis and the percent (%) hemolysis of each sample was relatively calculated from each measured absorbance, as shown in Table 3.

[2] = test system: Salmonella enteritidis (ATCC 15277); details: ATCC 15277, 12 h
Description: (§1) The microorganisms used in the present invention include Gram-positive bacteria such as Bacillus subtilis (ATCC 62037), Staphylococcus aureus (ATCC 15752) and Streptococcus mutans (ATCC 25175), Gram-negative bacteria such as Escherichia coli (ATCC 27325), Salmonella enteritidis (ATCC 15277) and Pseudomonas putida (ATCC 17426) and fungi such as Candida albicans (ATCC 10231), Saccharomyces cerevisiae (ATCC 44774) and Cryptococcus neoformans (ATCC 34881), obtained from American Type Culture Collection (ATCC).
(§2) The antimicrobial activity of the peptides prepared in Example 1 was determined against microorganisms by 96-well microdilution minimal inhibitory concentration assay. After overnight culturing the bacteria and fungi in trypticase soy broth (TSB) and Saboraud (SAB) at 37° C. and 30° C., respectively, they were inoculated in new media and cultured for 2 hours to exponential growth phase. After diluting the microorganisms to 10^5 per 1 ml, 190 μl was inoculated in each 96-well plate, and 10 μl of serially diluted peptides were added in each well.

[3] = test system: Escherichia coli (ATCC 27325); details: ATCC 27325, 12 h
Description: as §1, §2

[4] = test system: Cryptococcus neoformans (ATCC 34881); details: ATCC 34881, 12 h
Description: as §1, §2

[5] = test system: Bacillus subtilis (ATCC 62037); details: ATCC 62037, 12 h
Description: as §1, §2

[6] = test system: Streptococcus mutans (ATCC 25175); details: ATCC 25175, 12 h
Description: as §1, §2

[7] = test system: Staphylococcus aureus (ATCC 15752); details: ATCC 15752, 12 h
Description: as §1, §2

[8] = test system: Candida albicans (ATCC 10231); details: ATCC 10231, 12 h
Description: as §1, §2

[9] = test system: Saccharomyces cerevisiae (ATCC 44774); details: ATCC 44774, 12 h
Description: as §1, §2

[10] = test system: Pseudomonas putida (ATCC 17426); details: ATCC 17426, 12 h
Description: as §1, §2

33 (KLVRNWPIGKLVRKLVRKLVR; antimicrobial peptide) [compound 33]
cell penetration activity (E. coli): penetrate into E. coli cells

SEQ ID NO: 1 (RVVRQWPIGRVVRRVVRRVVR; antimicrobial peptide)
cell penetration activity (E. coli): penetrate into E. coli cells

GIGKFLHSAKKFGKAFVGEIMNS [Magainin, magainin, reference compound]
cell penetration activity (E. coli): bind with cell membrane

CC[C@H](C)[C@H](NC(=O)CN)C(=O)NCC(=O)N[C@@H](C)C(=O)N[C@H](C(=O)N[C@@H](CC(C)C)C(=O)N[C@@H](CCCCN)C(=O)N[C@H](C(=O)N[C@@H](CC(C)C)C(=O)N[C@H](C(=O)N[C@H](C(=O)NCC(=O)N[C@@H](CC(C)C)C(=O)N1CCC[C@H]1C(=O)N[C@@H](C)C(=O)N[C@@H](CC(C)C)C(=O)N[C@H](C(=O)N[C@@H](CO)C(=O)N[C@@H](Cc1c[nH]c2ccccc12)C(=O)N[C@H](C(=O)N[C@@H](CCCCN)C(=O)N[C@@H](CCCNC(=N)N)C(=O)N[C@@H](CCCCN)C(=O)N[C@@H](CCCNC(=N)N)C(=O)N[C@@H](CCC(N)=O)C(=O)N[C@@H](CCC(N)=O)C(N)=O)[C@@H](C)CC)[C@@H](C)CC)[C@@H](C)O)[C@@H](C)O)C(C)C)C(C)C [Melittin, melittin]
A567 ([1]; absorbance of supernatant diluted 10 times, peptide 200 μg/ml, 1 h at 37° C.): 3.17
hemolysis of hRBC (in words) ([1]; concentration of 200 μg/ml): destroy almost all hRBC

KLLKQWPIGKLLKKLLKKLLK [compound 4]
Minimum Inhibitory Concentration [2]: 1 µg/mL
Minimum Inhibitory Concentration [3]: 1 µg/mL
Minimum Inhibitory Concentration [4]: 1 µg/mL
Minimum Inhibitory Concentration [5]: 2 µg/mL
Minimum Inhibitory Concentration [6]: 1 µg/mL
Minimum Inhibitory Concentration [7]: 1 µg/mL
Minimum Inhibitory Concentration [8]: 1 µg/mL
Minimum Inhibitory Concentration [9]: 2 µg/mL
Minimum Inhibitory Concentration [10]: 1 µg/mL

RVVKRVVKRVVKNWPIGRVVK [compound 60]
Minimum Inhibitory Concentration [2]: 2 µg/mL
Minimum Inhibitory Concentration [3]: 2 µg/mL
Minimum Inhibitory Concentration [4]: 1 µg/mL
Minimum Inhibitory Concentration [5]: 1 µg/mL
Minimum Inhibitory Concentration [6]: 2 µg/mL
Minimum Inhibitory Concentration [7]: 2 µg/mL
Minimum Inhibitory Concentration [8]: 1 µg/mL
Minimum Inhibitory Concentration [9]: 1 µg/mL
Minimum Inhibitory Concentration [10]: 1 µg/mL

RLLRRLLRRLLRQWPIGRLLR [compound 37]
Minimum Inhibitory Concentration [2]: 2 µg/mL
Minimum Inhibitory Concentration [3]: 1 µg/mL
Minimum Inhibitory Concentration [4]: 2 µg/mL
Minimum Inhibitory Concentration [5]: 1 µg/mL
Minimum Inhibitory Concentration [6]: 1 µg/mL
Minimum Inhibitory Concentration [7]: 1 µg/mL
Minimum Inhibitory Concentration [8]: 2 µg/mL
Minimum Inhibitory Concentration [9]: 2 µg/mL
Minimum Inhibitory Concentration [10]: 1 µg/mL

RLVKNWPIGRLVKRLVKRLVK-NH2 [compound 70]
Minimum Inhibitory Concentration [2]: 1 µg/mL
Minimum Inhibitory Concentration [3]: 1 µg/mL
Minimum Inhibitory Concentration [4]: 1 µg/mL
Minimum Inhibitory Concentration [5]: 1 µg/mL
Minimum Inhibitory Concentration [6]: 2 µg/mL
Minimum Inhibitory Concentration [7]: 1 µg/mL
Minimum Inhibitory Concentration [8]: 1 µg/mL
Minimum Inhibitory Concentration [9]: 1 µg/mL
Minimum Inhibitory Concentration [10]: 1 µg/mL

KLVRNFPVGKLVRKLVRKLVR [compound 34]
Minimum Inhibitory Concentration [2]: 1 µg/mL
Minimum Inhibitory Concentration [3]: 1 µg/mL
Minimum Inhibitory Concentration [4]: 1 µg/mL
Minimum Inhibitory Concentration [5]: 1 µg/mL
Minimum Inhibitory Concentration [6]: 2 µg/mL
Minimum Inhibitory Concentration [7]: 1 µg/mL
Minimum Inhibitory Concentration [8]: 1 µg/mL
Minimum Inhibitory Concentration [9]: 1 µg/mL
Minimum Inhibitory Concentration [10]: 1 µg/mL

KLLRKLLRKLLRNWPIGKLLR [compound 63]
Minimum Inhibitory Concentration [2]: 2 µg/mL
Minimum Inhibitory Concentration [3]: 1 µg/mL
Minimum Inhibitory Concentration [4]: 1 µg/mL
Minimum Inhibitory Concentration [5]: 1 µg/mL
Minimum Inhibitory Concentration [6]: 2 µg/mL
Minimum Inhibitory Concentration [7]: 1 µg/mL
Minimum Inhibitory Concentration [8]: 1 µg/mL
Minimum Inhibitory Concentration [9]: 2 µg/mL
Minimum Inhibitory Concentration [10]: 1 µg/mL

RLLRRLLRRLLRNWPIGRLLR [compound 54]
Minimum Inhibitory Concentration [2]: 1 µg/mL
Minimum Inhibitory Concentration [3]: 2 µg/mL
Minimum Inhibitory Concentration [4]: 1 µg/mL
Minimum Inhibitory Concentration [5]: 1 µg/mL
Minimum Inhibitory Concentration [6]: 2 µg/mL
Minimum Inhibitory Concentration [7]: 1 µg/mL
Minimum Inhibitory Concentration [8]: 1 µg/mL
Minimum Inhibitory Concentration [9]: 2 µg/mL
Minimum Inhibitory Concentration [10]: 1 µg/mL

KVLRKVLRKVLRQWPIGKVLR-NH2 [compound 71]
Minimum Inhibitory Concentration [2]: 1 µg/mL
Minimum Inhibitory Concentration [3]: 1 µg/mL
Minimum Inhibitory Concentration [4]: 1 µg/mL
Minimum Inhibitory Concentration [5]: 1 µg/mL
Minimum Inhibitory Concentration [6]: 1 µg/mL
Minimum Inhibitory Concentration [7]: 1 µg/mL
Minimum Inhibitory Concentration [8]: 1 µg/mL
Minimum Inhibitory Concentration [9]: 2 µg/mL
Minimum Inhibitory Concentration [10]: 1 µg/mL
